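Each compound was tested at five concentrations against cells in 96-well plates for 48 hours. TGI marks complete inhibition of growth.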
Legend:
Assay in all cases: NCI-60 cell line screen, 48 h
[1] = tested on: 786-0 renal
[2] = tested on: A498 renal
[3] = tested on: A549 NSCLC
[4] = tested on: ACHN renal
[5] = tested on: CAKI-1 renal
[6] = tested on: CCRF-CEM leukemia
[7] = tested on: COLO 205 colon
[8] = tested on: DU-145 prostate
[9] = tested on: EKVX NSCLC
[10] = tested on: HCC-2998 colon
[11] = tested on: HCT-116 colon
[12] = tested on: HCT-15 colon
[13] = tested on: HL-60(TB) leukemia
[14] = tested on: HOP-62 NSCLC
[15] = tested on: HOP-92 NSCLC
[16] = tested on: HS 578T breast
[17] = tested on: HT29 colon
[18] = tested on: IGROV1 ovarian
[19] = tested on: K-562 leukemia
[20] = tested on: KM12 colon
[21] = tested on: LOX IMVI melanoma
[22] = tested on: MALME-3M melanoma
[23] = tested on: MCF7 breast
[24] = tested on: MDA-MB-231 breast
[25] = tested on: MDA-MB-435
[26] = tested on: MDA-N
[27] = tested on: MOLT-4 leukemia
[28] = tested on: NCI-H226 lung
[29] = tested on: NCI-H23 lung
[30] = tested on: NCI-H460 lung
[31] = tested on: NCI-H522 lung
[32] = tested on: NCI/ADR-RES ovarian
[33] = tested on: OVCAR-3 ovarian
[34] = tested on: OVCAR-4 ovarian
[35] = tested on: OVCAR-5 ovarian
[36] = tested on: OVCAR-8 ovarian
[37] = tested on: PC-3 prostate
[38] = tested on: RPMI-8226 leukemia
[39] = tested on: RXF 393 renal
[40] = tested on: SF-268 CNS
[41] = tested on: SF-295 CNS
[42] = tested on: SK-MEL-2 melanoma
[43] = tested on: SK-MEL-28 melanoma
[44] = tested on: SK-MEL-5 melanoma
[45] = tested on: SK-OV-3 ovarian
[46] = tested on: SN12C renal
[47] = tested on: SNB-19 CNS
[48] = tested on: SNB-75 CNS
[49] = tested on: SW-620 colon
[50] = tested on: T-47D breast
[51] = tested on: TK-10 renal
[52] = tested on: U251 CNS
[53] = tested on: UACC-257 melanoma
[54] = tested on: UACC-62 melanoma
[55] = tested on: UO-31 renal
[56] = tested on: BT-549 breast
[57] = tested on: M14 melanoma
[58] = tested on: SF-539 CNS

CN(CCCNCc1ccccn1)Cc1ccccc1O
TGI [1]: > 100 µM | TGI [2]: > 100 µM | TGI [3]: > 100 µM | TGI [4]: 42.3 µM | TGI [5]: > 100 µM | TGI [6]: > 100 µM | TGI [7]: 94.4 µM | TGI [8]: > 100 µM | TGI [9]: > 100 µM | TGI [10]: > 100 µM | TGI [11]: > 100 µM | TGI [12]: > 100 µM | TGI [13]: > 100 µM | TGI [14]: > 100 µM | TGI [15]: > 100 µM | TGI [16]: > 100 µM | TGI [17]: 94.4 µM | TGI [18]: > 100 µM | TGI [19]: > 100 µM | TGI [20]: > 100 µM | TGI [21]: > 100 µM | TGI [22]: > 100 µM | TGI [23]: > 100 µM | TGI [24]: > 100 µM | TGI [25]: > 100 µM | TGI [26]: > 100 µM | TGI [27]: > 100 µM | TGI [28]: 97.8 µM | TGI [29]: 55.6 µM | TGI [30]: > 100 µM | TGI [31]: > 100 µM | TGI [32]: 95.2 µM | TGI [33]: > 100 µM | TGI [34]: > 100 µM | TGI [35]: > 100 µM | TGI [36]: > 100 µM | TGI [37]: > 100 µM | TGI [38]: > 100 µM | TGI [39]: > 100 µM | TGI [40]: > 100 µM | TGI [41]: 54.7 µM | TGI [42]: > 100 µM | TGI [43]: > 100 µM | TGI [44]: 51.6 µM | TGI [45]: > 100 µM | TGI [46]: > 100 µM | TGI [47]: 68.5 µM | TGI [48]: > 100 µM | TGI [49]: > 100 µM | TGI [50]: > 100 µM | TGI [51]: 64.8 µM | TGI [52]: > 100 µM | TGI [53]: 92.2 µM | TGI [54]: 43.2 µM | TGI [55]: 19.8 µM

C[C@H]1[C@H](N2CCCC2)O[Si](C(C)(C)C)(C(C)(C)C)[C@@H]1C
TGI [1]: > 100 µM | TGI [2]: > 100 µM | TGI [3]: > 100 µM | TGI [4]: > 100 µM | TGI [56]: > 100 µM | TGI [5]: > 100 µM | TGI [6]: > 100 µM | TGI [7]: > 100 µM | TGI [9]: > 100 µM | TGI [10]: > 100 µM | TGI [11]: > 100 µM | TGI [12]: > 100 µM | TGI [13]: 48.5 µM | TGI [14]: > 100 µM | TGI [15]: 4.7 µM | TGI [17]: > 100 µM | TGI [18]: > 100 µM | TGI [19]: > 100 µM | TGI [20]: > 100 µM | TGI [21]: > 100 µM | TGI [57]: > 100 µM | TGI [22]: > 100 µM | TGI [23]: > 100 µM | TGI [24]: > 100 µM | TGI [25]: > 100 µM | TGI [26]: > 100 µM | TGI [27]: > 100 µM | TGI [28]: > 100 µM | TGI [29]: > 100 µM | TGI [31]: > 100 µM | TGI [32]: > 100 µM | TGI [33]: > 100 µM | TGI [34]: > 100 µM | TGI [35]: > 100 µM | TGI [36]: > 100 µM | TGI [37]: > 100 µM | TGI [38]: > 100 µM | TGI [41]: > 100 µM | TGI [58]: > 100 µM | TGI [42]: > 100 µM | TGI [43]: > 100 µM | TGI [44]: > 100 µM | TGI [45]: > 100 µM | TGI [46]: > 100 µM | TGI [47]: > 100 µM | TGI [48]: > 100 µM | TGI [49]: > 100 µM | TGI [50]: > 100 µM | TGI [51]: > 100 µM | TGI [52]: > 100 µM | TGI [53]: > 100 µM | TGI [54]: > 100 µM | TGI [55]: > 100 µM

CN(CCCN=C=S)CCCN1c2ccccc2CCc2ccccc21
TGI [1]: 3.08 µM | TGI [2]: 3.07 µM | TGI [3]: 3.16 µM | TGI [4]: 3.12 µM | TGI [5]: 3.21 µM | TGI [6]: > 100 µM | TGI [8]: 3.22 µM | TGI [10]: 2.69 µM | TGI [11]: 3.09 µM | TGI [12]: 2.9 µM | TGI [15]: 4.29 µM | TGI [16]: 4.03 µM | TGI [17]: 2.94 µM | TGI [19]: > 100 µM | TGI [20]: 3.5 µM | TGI [57]: 3.16 µM | TGI [22]: 3.48 µM | TGI [24]: 3.29 µM | TGI [25]: 3.27 µM | TGI [26]: 3.16 µM | TGI [27]: > 100 µM | TGI [29]: 3.11 µM | TGI [30]: 3.45 µM | TGI [32]: 2.67 µM | TGI [33]: 3.14 µM | TGI [34]: 3.56 µM | TGI [35]: 3.35 µM | TGI [36]: 3.43 µM | TGI [39]: 3.39 µM | TGI [40]: 3.24 µM | TGI [58]: 3.46 µM | TGI [42]: 3.38 µM | TGI [44]: 3.43 µM | TGI [45]: 3.16 µM | TGI [46]: 3.17 µM | TGI [47]: 3.14 µM | TGI [50]: 3.92 µM | TGI [51]: 3.26 µM | TGI [52]: 3.26 µM | TGI [53]: 3.85 µM | TGI [54]: 3.2 µM | TGI [55]: 3 µM

Cc1ccc(-c2cc(-c3ccccc3)nc(N)n2)c(O)c1
TGI [1]: > 100 µM | TGI [2]: > 100 µM | TGI [3]: > 100 µM | TGI [4]: > 100 µM | TGI [56]: > 100 µM | TGI [5]: > 100 µM | TGI [6]: > 100 µM | TGI [7]: > 100 µM | TGI [8]: > 100 µM | TGI [10]: > 100 µM | TGI [11]: > 100 µM | TGI [12]: > 100 µM | TGI [13]: > 100 µM | TGI [14]: > 100 µM | TGI [15]: > 100 µM | TGI [17]: > 100 µM | TGI [19]: > 100 µM | TGI [20]: > 100 µM | TGI [57]: > 100 µM | TGI [22]: > 100 µM | TGI [23]: > 100 µM | TGI [24]: > 100 µM | TGI [25]: > 100 µM | TGI [26]: > 100 µM | TGI [27]: > 100 µM | TGI [29]: > 100 µM | TGI [30]: > 100 µM | TGI [31]: > 100 µM | TGI [32]: > 100 µM | TGI [33]: > 100 µM | TGI [34]: > 100 µM | TGI [35]: > 100 µM | TGI [36]: > 100 µM | TGI [37]: > 100 µM | TGI [38]: > 100 µM | TGI [39]: > 100 µM | TGI [40]: > 100 µM | TGI [41]: > 100 µM | TGI [58]: > 100 µM | TGI [42]: > 100 µM | TGI [43]: > 100 µM | TGI [44]: > 100 µM | TGI [45]: > 100 µM | TGI [46]: > 100 µM | TGI [47]: > 100 µM | TGI [49]: > 100 µM | TGI [50]: > 100 µM | TGI [51]: > 100 µM | TGI [52]: > 100 µM | TGI [53]: > 100 µM | TGI [54]: > 100 µM | TGI [55]: > 100 µM

Cc1ccc(C(=O)N/N=C(\N=Nc2cccc([N+](=O)[O-])c2)c2ccc(N(C)C)cc2)cc1
TGI [1]: > 100 µM | TGI [3]: > 100 µM | TGI [56]: > 100 µM | TGI [5]: > 100 µM | TGI [6]: > 100 µM | TGI [7]: > 100 µM | TGI [8]: 85.5 µM | TGI [9]: > 100 µM | TGI [10]: > 100 µM | TGI [11]: > 100 µM | TGI [12]: > 100 µM | TGI [13]: > 100 µM | TGI [15]: > 100 µM | TGI [16]: > 100 µM | TGI [17]: > 100 µM | TGI [18]: > 100 µM | TGI [19]: > 100 µM | TGI [20]: > 100 µM | TGI [21]: > 100 µM | TGI [57]: > 100 µM | TGI [23]: > 100 µM | TGI [24]: > 100 µM | TGI [25]: > 100 µM | TGI [26]: > 100 µM | TGI [27]: > 100 µM | TGI [28]: > 100 µM | TGI [29]: > 100 µM | TGI [30]: > 100 µM | TGI [31]: > 100 µM | TGI [32]: > 100 µM | TGI [33]: > 100 µM | TGI [34]: > 100 µM | TGI [35]: > 100 µM | TGI [36]: > 100 µM | TGI [37]: > 100 µM | TGI [38]: > 100 µM | TGI [40]: > 100 µM | TGI [41]: > 100 µM | TGI [58]: > 100 µM | TGI [42]: > 100 µM | TGI [43]: > 100 µM | TGI [44]: > 100 µM | TGI [46]: > 100 µM | TGI [47]: > 100 µM | TGI [49]: > 100 µM | TGI [51]: > 100 µM | TGI [52]: > 100 µM | TGI [53]: > 100 µM | TGI [55]: > 100 µM

From PubChem BioAssay (NCI)
